# Experimental data published in patent US11945826B2, “Hydroxypyridoxazepines as NRF2 activators” (GLAXOSMITHKLINE INTELLECTUAL PROPERTY DEVELOPMENT LIMITED, priority 2019, dated 2024).
# Read-outs that look alike come from different tables or passages of the source.
# Legend:
# [1] = test system: Nrf2 (NQO1 activity in BEAS-2B cells); experiment: BEAS-2B NQO1 MTT Assay; assay type: cell-based; details: Homo sapiens, NQO1 specific activity induction
# From the text: NAD(P)H:quinone oxidoreductase 1 (NQO1), also called DT diaphorase, is a homodimeric FAD-containing enzyme that catalyzes obligatory NAD(P)H-dependent two-electron reductions of quinones and protects cells against the toxic and neoplastic effects of free radicals and reactive oxygen species arising from one-electron reductions. The transcription of NQO1 is finely regulated by Nrf2, and thus NQO1 activity is a good marker for Nrf2 activation. On day one, frozen BEAS-2B cells (ATCC) were thawed in a water bath, counted, and re-suspended at a concentration of 250,000 cells/mL. Fifty microliters of cells were plated in 384 well black clear-bottomed plates. Plates were incubated at 37° C., 5% CO2 overnight. On day two, plates were centrifuged and 50 nL of compound or controls were added to the cells. Plates were then incubated at 37° C., 5% CO2 for 48 hours. On day four, medium was aspirated from the plate and crude cell lysates were made by adding 13 μL of 1× Cell Signalling Technologies lysis buffer with 1 Complete, Mini, EDTA-free Protease Inhibitor Tablet (Roche) for each 10 mL of lysis buffer. After lysis plates were incubated for 20 minutes at room temperature. Two microliters of lysate were removed for use in Cell Titer Glo assay (Promega) and MTT cocktail was prepared (Prochaska et. al. 1998) for measurement of NQO1 activity. Fifty microliters of MTT cocktail was added to each well, plate was centrifuged, and analyzed on an Envision plate reader (Perkin Elmer) using Absorbance 570 nm label for 30 minutes. Product formation was measured kinetically and the pEC50 of NQO1 specific activity induction was calculated by plotting the change in absorbance (Delta OD/min) versus the log of compound concentration followed by 3-parameter fitting.
# EC50s<1 nM (+++++), EC50s 1 nM-10 nM (++++), EC50s 10 nM-100 nM (+++), EC50s 100 nM-1 μM (++), EC50s 1 μM-10 μM (+).
# Monkey PK Study = assay type: in vivo; details: cynomolgus monkey; for MRT / clearance: male, plasma, nominal 1 mg/kg 60-minute intravenous infusion, cassette; for MRT: read-out: Monkey Pharmacokinetics MRT; for clearance: read-out: Monkey Pharmacokinetics Total Clearance
# Experimental: All studies were conducted after review by the GSK Institutional Animal Care and Use Committee and in accordance with the GSK Policy on the Care, Welfare and Treatment of Laboratory Animals. A pre-study health examination that included a physical exam and complete blood count was performed on the animals prior to use on study. A catheter was temporarily placed in a cephalic or saphenous vein for sample collection on the study day. The animals were fasted overnight prior to dosing; food provided after the 4-hour blood sample was collected. The intravenous and oral solution pharmacokinetic studies were carried out using a non-crossover design; a total of four male cynomolgus monkeys were used, two per route of administration.
# The compounds used in this study were the compound of Example 1, herein, and Compound A (the compound of Example 1 of WO 2018/109646).
# The dose for intravenous administration was prepared as a cassette of up to five test compounds in 20% Cavitron™ and 5% DMSO. The intravenous dose formulation was filtered through a 0.22-micron polytetrafluoroethylene (PTFE) filter prior to administration. The dose for oral solution administration was prepared as a cassette of up to five compounds in 6% Cavitron™ and 5% DMSO and was filtered through a 0.22-micron VWR PTFE filter prior to administration.
# Each animal received a nominal dose of 1 mg/kg/compound (4 mL/kg dose volume) either as a 60-minute intravenous infusion or as an oral gavage. Blood samples (approximately 0.25 mL each) were collected from a cephalic or saphenous vein. Blood samples from animals that received the intravenous dose were collected prior to dosing and at target times of 15, 30, 45, 60 (before termination of the infusion), 62, 65, 75, 90, 120, 180, 240, 360, 480, 600, and 1440 minutes following the initiation of the intravenous infusion. For animals that received the oral dose, blood samples were collected prior to dosing and at target times of 5, 15, 30, 45, 60, 90, 120, 180, 240, 360, 480, 600, and 1440 minutes following oral gavage. Plasma was isolated from blood by centrifugation and a 30 μL aliquot was transferred to a non-heparinized tube, quick frozen on solid carbon dioxide and stored at approximately −80° C. until analyzed by liquid chromatography/tandem mass spectroscopy (LC/MS/MS) for test compound concentration.
# Pharmacokinetic parameters for all in vivo PK studies were calculated using non-compartmental methods with Phoenix WinNonlin version 6.1.0 or 8.1.0. All parameters were calculated using actual blood sampling times and actual dosages for each animal. The extrapolated area under the curve (AUC0-inf) was determined using unweighted linear regression analysis of at least three log transformed concentrations visually assessed to be on the linear portion of the terminal elimination slope. Oral solution bioavailability was calculated in a non-crossover fashion using the mean intravenous dose and AUC0-inf values from the two intravenously dosed animals for the monkey PK study and in a crossover fashion for the rat PK study.
# human PXR = target: T1, human PXR (Homo sapiens, UniProt O75469); experiment: Human PXR Activation Assay; assay type: cell-based; details: for EC50: HepG2 transfected with human PXR and CYP3A4 promoter luciferase, 24 h; for Emax at 24 h: human, percent maximum induction compared to 10 μM rifampicin
# T1 construct: expression vectors containing full length human PXR; expressed in transfected cells; host or cells: HepG2 (human hepatocellular carcinoma line), transient transfection with FuGENE
# T1 sequence (O75469 1-434): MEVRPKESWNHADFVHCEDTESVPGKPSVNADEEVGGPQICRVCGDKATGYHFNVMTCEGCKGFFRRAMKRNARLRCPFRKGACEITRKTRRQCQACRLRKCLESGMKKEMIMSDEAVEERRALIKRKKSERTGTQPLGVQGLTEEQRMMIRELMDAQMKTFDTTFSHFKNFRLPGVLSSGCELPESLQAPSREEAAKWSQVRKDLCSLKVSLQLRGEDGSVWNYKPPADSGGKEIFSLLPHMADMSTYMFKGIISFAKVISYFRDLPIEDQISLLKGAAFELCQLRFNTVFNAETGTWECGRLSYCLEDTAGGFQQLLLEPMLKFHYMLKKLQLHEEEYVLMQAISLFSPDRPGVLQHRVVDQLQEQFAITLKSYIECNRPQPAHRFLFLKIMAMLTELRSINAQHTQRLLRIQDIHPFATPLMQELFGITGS
# Experimental: Transactivation activity of PXR ligands was measured in a human hepatocellular carcinoma line (HepG2) batch transiently transfected using FuGENE™ with expression vectors containing full length human PXR and the human CYP3A4 promoter driving luciferase expression. Following transfection, cells are frozen until required for assay.
# On day of assay, cells were recovered, counted on a CEDEX instrument then resuspended to a density of 50,000 cells/mL in phenol red-free DMEM-F12 supplemented with 10% charcoal/dextran-treated FBS. 20 μl of cell suspension was then dispensed to each well of white Nunc 384-well plates, containing […] of test compounds in DMSO. Cells were incubated for 24 h in the presence compound after which time […] of Steady-Lite™ luciferase substrate was added to each well. Luciferase activity was quantified by measurement on the Pherastar™ imager and activity was expressed as percent maximum induction as compared to induction by 10 μM rifampicin.
# [2] = read-out: Nrf2 BEAS-2B NQO1 EC50
SMILES,"EC50 ([1]; 48 hours, read-out: EC50) [nM]","EC50 [1, 2] [nM]",fold improvement in mean residence time (MRT) versus Compound A (Monkey PK Study) [fold],fold reduction in total clearance (CL) versus Compound A (Monkey PK Study) [fold],MRT (Monkey PK Study) [h],clearance (Monkey PK Study) [mL/min/kg],EC50 (human PXR) [nM],Emax at 24 h (human PXR) [%]
"CC[C@@H]1CN(Cc2cc([C@@H](CC(=O)O)c3ccc4c(nnn4C)c3C)ccc2C)Cc2nc(O)ccc2O1 [Example 1, (R)-3-(1,4-dimethyl-1H-benzo[d][1,2,3]triazol-5-yl)-3-(3-(((R)-2-ethyl-7-hydroxy-2,3-dihydropyrido[2,3-f][1,4]oxazepin-4(5H)-yl)methyl)-4-methylphenyl)propanoic acid]",10 to 100,13,~11,~27,18,0.41,> 50000,10
"CC[C@@H]1CN(Cc2cc([C@@H](CC(=O)O)c3ccc4c(nnn4C)c3C)ccc2C)Cc2ncccc2O1 [Compound A, reference compound]",,16,,,1.6,10.9,25000,56
